# Earlier results, collected in patent US8106028B2, “MicroRNA-21 antagonists and its target PDCD4 for use in the treatment of a glioma” (Trustees of Dartmouth College, priority 2009, dated 2012).
# Tested on: PDCD4
# Settings: breast cancer cells; Afonja, et al. (2004)
smiles,measurement,value
CC1(C)CCC(C)(C)c2cc(C(=O)Nc3ccc(C(=O)O)cc3)ccc21 [Am580],expression of PDCD4,stimulate the expression of PDCD4
